{
  "source": "patent US9101600B2",
  "about": "“Compounds as RORγt modulators and uses thereof” (New York University, priority 2010, dated 2015)",
  "key": {"[1]": {"tested_on": "mouse Th17 cell differentiation", "test": "Cytokine induced mouse Th17 cell differentiation (IL17a production, FACS)", "format": "cell-based", "conditions": "for percentage of mouse Th17 cells (IL17a production): compound added Day 1, analyzed Day 4", "description": "Cytokine induced mouse Th17 cells differentiation. Effects on mouse endogenous RORγt in a relevant physiological setting were determined by testing compounds in the Th17 cell differentiation assay. […] Th1 or regulatory T cell differentiation was used as a counter-screen method to select specific compounds that only affect Th17 cell differentiation without having pleiotrophic effects on general T cell proliferation or cytokine production.\nNaive CD4 T cells were cultured with CD3/CD28 stimulatory antibodies in presence of TGFβ and IL6. Compounds were added on Day 1 and cells were analyzed on Day 4. Numbers shown in Table 3 indicate the percentage of mouse Th17 cells.\nCD25^−, CD62L^+, and CD44^int-high cells were sorted from B6 mice."}, "RORγ/γt": {"molecular_target": "RORγ/γt (Mus musculus, UniProt P51450, T352K)", "sequence (P51450 with tags, fused parts or gaps T352K)": "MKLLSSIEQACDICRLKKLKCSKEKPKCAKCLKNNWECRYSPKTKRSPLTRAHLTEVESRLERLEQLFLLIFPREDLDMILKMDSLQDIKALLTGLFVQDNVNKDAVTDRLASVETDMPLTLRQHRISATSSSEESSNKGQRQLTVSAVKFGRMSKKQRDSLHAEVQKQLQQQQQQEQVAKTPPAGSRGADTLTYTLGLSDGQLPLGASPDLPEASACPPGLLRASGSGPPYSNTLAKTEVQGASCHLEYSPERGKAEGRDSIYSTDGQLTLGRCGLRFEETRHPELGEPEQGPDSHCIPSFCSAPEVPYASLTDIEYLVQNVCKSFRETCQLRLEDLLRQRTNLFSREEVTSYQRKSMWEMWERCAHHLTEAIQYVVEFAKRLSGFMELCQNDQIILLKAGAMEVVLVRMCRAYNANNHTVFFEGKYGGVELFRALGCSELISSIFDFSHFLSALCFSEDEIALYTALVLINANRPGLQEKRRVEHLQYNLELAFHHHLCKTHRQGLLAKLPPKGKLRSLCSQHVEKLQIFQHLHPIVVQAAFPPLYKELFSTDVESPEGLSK", "test": "RORγ/γt-luc reporter S2 cell assay / HTS (firefly luciferase)", "conditions": "for 80% Inhib. @: RORγ/γt reporter, S2 cells, concentration for 80% inhibition", "excerpt": "The Drosophila S2 cell line was originally purchased from Invitrogen and was maintained in Schneider's medium supplemented with 10% heat-inactivated bovine fetal calf serum and antibiotics (Invitrogen). Gal4 DNA binding domain (G4 DBD) corresponding to amino acids 1 through 147 of Gal4 protein was PCR amplified to make a fusion construct with mouse RORγt (amino acids 79 to the carboxyl terminal end) lacking its DNA binding domain. The resulting chimeric gene was subcloned into the copper inducible pMT/V5-His A vector (available from Invitrogen). In a similar manner, Gal4 fusion constructs were prepared with mouse RORα (amino acids 142 to end) or Drosophila DHR3 (amino acids 120 to end).\nIn order to generate stable cell lines, cells were co-transfected with pMT-G4 DBD-RORγt, pMT-G4 DBD-RORα, pMT-G4 DBD-DHR3, or pMT-G4DBDVP16 and pHygro plasmids (Invitrogen) and screened for resistant colonies in the presence of hygromycin (0.3 mg/mL). More than 150 independent RORγ stable clones with luciferase reporters (pMt-RORγ_luc) were tested for their suitability for the high-throughput screening (HTS) based on the following criteria: high signal-to background ratio in 384- and 1,536-well plates, their high induction rate upon the addition of copper, and RORγ/γt specificity probed by the dsRORγ- or RORγ/γt antagonist-mediated suppression. Positive clones were further transfected with pUAST-firefly luciferase, polIII-Renilla luciferase, and pCoPuro (Iwaki, Figuera et al. 2003) (“Rapid selection of Drosophila S2 cells with the puromycin resistance gene.” Biotechniques 35(3): 482-4, 486.) and selected with puromycin (2.5 ug/ml). […] Using similar methods, stable clones with genomic integration of the luciferase reporters and other reporters were generated such as pMT-RORα_luc, pMT-DHR3_luc, or pMT-VP16_luc.\n600 G4 DBD-RORγ/γt-luc reporter (#25) or G4 DBD-VP16-luc reporter cells were distributed into each well of 1,536-well white bottom plates in 4 μl S2 cell culture volume containing hygromicin (300 μg/ml) and puromycin (2 μg/ml). Small compounds in seven different concentrations range from 46 μM to 1.7 nM were pin-transferred (23 nl) by a robot (Inglese et al., 2006, Proc. Natl. Acad. Sci. 103:11473-8). […] After 20-hour incubation at ambient temperature, 1.5 μl firefly luciferase detection mix was added and the luciferase activities were measured in 10 min. ViewLux luminometers were used for measuring luciferase signal.\nSince their cognate DNA binding sites were not well characterized, the DNA binding domains (DBD) of RORγ/γt, RORα(mouse homolog for PORγ), and DHR3 (Drosophila orthologue for ROR family proteins) were replaced with the heterologous yeast GAL4 DBD. The transcriptionally active domain of general transcriptional activator VP16 was also fused with GAL4 DBD."}, "[2]": {"tested_on": "VP16-luc, RORα-luc, and DHR3-luc reporter S2 cell lines", "test": "S2 cell reporter specificity test on other closely related reporters", "format": "cell-based", "conditions": "S2 cell assay"}},
  "note": "pIC50: −log10 of the molar value.",
  "data": [
    {"smiles": "CCOc1ccc(-c2cc(CCCC(=O)NCc3cccnc3)no2)cc1", "note": "[MLS000118457-02]", "values": [
      {"measurement": "percentage of mouse Th17 cells (IL17a production)", "setting": "[1]; 20 μM, DMSO 17% Th17", "value": 10.7, "unit": "%"}
    ]},
    {"smiles": "O=C(/C=C/c1ccc(S(=O)(=O)N2CCOCC2)cc1)NC(=S)Nc1ccc(N2CCOCC2)cc1", "note": "[MLS000402315-02]", "values": [
      {"measurement": "percentage of mouse Th17 cells (IL17a production)", "setting": "[1]; 20 μM, DMSO 17% Th17", "value": 4.8, "unit": "%"},
      {"measurement": "pIC50", "setting": "RORγ/γt", "value": 5.58},
      {"measurement": "80% Inhib. @", "setting": "RORγ/γt", "value": 7.292, "unit": "µM"}
    ]},
    {"smiles": "Cc1nn(-c2cc(C)c3ccccc3n2)c2c1C1C(C2)C1(C)C", "note": "(stereo not shown) [MLS000526165-02]", "values": [
      {"measurement": "percentage of mouse Th17 cells (IL17a production)", "setting": "[1]; 20 μM, DMSO 17% Th17", "value": 8.3, "unit": "%"}
    ]},
    {"smiles": "CCOC(=O)c1sc(NC(=O)c2cc3c(s2)CCC(C)C3)nc1C", "note": "(stereo not shown) [MLS000566729-02]", "values": [
      {"measurement": "percentage of mouse Th17 cells (IL17a production)", "setting": "[1]; 5 μM, DMSO 25% Th17", "value": 16.3, "unit": "%"},
      {"measurement": "percentage of mouse Th17 cells (IL17a production)", "setting": "[1]; 20 μM, DMSO 17% Th17", "value": 12.1, "unit": "%"},
      {"measurement": "pIC50", "setting": "RORγ/γt", "value": 6.87},
      {"measurement": "80% Inhib. @", "setting": "RORγ/γt", "value": 0.4389, "unit": "µM"}
    ]},
    {"smiles": "CCOC(=O)C1CCN(CC(=O)Nc2cc(C)nn2-c2nc3ccccc3s2)CC1", "note": "[MLS000569401-02]", "values": [
      {"measurement": "percentage of mouse Th17 cells (IL17a production)", "setting": "[1]; 5 μM, DMSO 25% Th17", "value": 15, "unit": "%"}
    ]},
    {"smiles": "O=C(NC(=S)Nc1nc(-c2ccccc2)cs1)c1cccnc1", "note": "[MLS000592121-02]", "values": [
      {"measurement": "percentage of mouse Th17 cells (IL17a production)", "setting": "[1]; 5 μM, DMSO 25% Th17", "value": 27.7, "unit": "%"},
      {"measurement": "percentage of mouse Th17 cells (IL17a production)", "setting": "[1]; 20 μM, DMSO 17% Th17", "value": 27.7, "unit": "%"},
      {"measurement": "pIC50", "setting": "RORγ/γt", "value": 4.75},
      {"measurement": "80% Inhib. @", "setting": "RORγ/γt", "value": 62.17, "unit": "µM"}
    ]},
    {"smiles": "COc1ccc(OC)c(NC(=S)N(CCc2c(C)[nH]c3ccccc23)Cc2cccs2)c1", "note": "[MLS000696943-02]", "values": [
      {"measurement": "percentage of mouse Th17 cells (IL17a production)", "setting": "[1]; 5 μM, DMSO 25% Th17", "value": 13.9, "unit": "%"},
      {"measurement": "percentage of mouse Th17 cells (IL17a production)", "setting": "[1]; 20 μM, DMSO 17% Th17", "value": 3.1, "unit": "%"},
      {"measurement": "pIC50", "setting": "RORγ/γt", "value": 4.87},
      {"measurement": "80% Inhib. @", "setting": "RORγ/γt", "value": 35.57, "unit": "µM"}
    ]},
    {"smiles": "Cc1cccc(-c2nc3cc(NC(=O)C4CCCO4)ccc3o2)c1", "note": "(stereo not shown) [MLS000700815-02]", "values": [
      {"measurement": "percentage of mouse Th17 cells (IL17a production)", "setting": "[1]; 20 μM, DMSO 17% Th17", "value": 11.9, "unit": "%"}
    ]},
    {"smiles": "C[C@H]1[C@H](C)CC[C@]2(C(=O)O)CC[C@]3(C)C(=CC[C@@H]4[C@@]5(C)CC[C@H](O)C(C)(C)[C@@H]5CC[C@]43C)[C@H]12", "note": "[MLS000728569-02]", "values": [
      {"measurement": "percentage of mouse Th17 cells (IL17a production)", "setting": "[1]; 5 μM, DMSO 25% Th17", "value": 3.7, "unit": "%"},
      {"measurement": "percentage of mouse Th17 cells (IL17a production)", "setting": "[1]; 20 μM, DMSO 17% Th17", "value": "dead"}
    ]},
    {"smiles": "C=C1NN=C(c2ccccc2Br)N1N=Cc1ccc(N(CC)CC)cc1", "note": "[MLS000767819-02]", "values": [
      {"measurement": "activity of other closely related reporters (in words)", "setting": "[2]", "value": "without having effects"},
      {"measurement": "percentage of mouse Th17 cells (IL17a production)", "setting": "[1]; 20 μM, DMSO 17% Th17", "value": 10.2, "unit": "%"},
      {"measurement": "pIC50", "setting": "RORγ/γt", "value": 5.56},
      {"measurement": "80% Inhib. @", "setting": "RORγ/γt", "value": 7.562, "unit": "µM"},
      {"measurement": "RORγ/γt reporter activity (in words)", "setting": "RORγ/γt; S2 cell reporter", "value": "suppression of RORγ reporter activity"}
    ]},
    {"smiles": "O=C(CCCOc1ccccc1)Nc1nc2ccccc2[nH]1", "note": "[MLS000772650-02]", "values": [
      {"measurement": "percentage of mouse Th17 cells (IL17a production)", "setting": "[1]; 5 μM, DMSO 25% Th17", "value": 16.9, "unit": "%"},
      {"measurement": "percentage of mouse Th17 cells (IL17a production)", "setting": "[1]; 20 μM, DMSO 17% Th17", "value": 9.9, "unit": "%"},
      {"measurement": "pIC50", "setting": "RORγ/γt", "value": 5.06},
      {"measurement": "80% Inhib. @", "setting": "RORγ/γt", "value": 12.38, "unit": "µM"}
    ]},
    {"smiles": "C=C(NC(=O)c1ccccc1)N1CCN(c2ncc3c(=O)c(C(=O)O)cn(CC)c3n2)CC1", "note": "[MLS000777984-02]", "values": [
      {"measurement": "percentage of mouse Th17 cells (IL17a production)", "setting": "[1]; 20 μM, DMSO 17% Th17", "value": 8.9, "unit": "%"},
      {"measurement": "effect on mouse Th17 cell differentiation / IL-17a in mouse CD4 T cells (in words)", "setting": "[1]; IL-6 and TGF-β", "value": "RORγt specific inhibitory effects"}
    ]},
    {"smiles": "Cc1cc(C)n(-c2nc(SCC(=O)O)c3c4c(sc3n2)CCCC4)n1", "note": "[MLS000778763-02]", "values": [
      {"measurement": "percentage of mouse Th17 cells (IL17a production)", "setting": "[1]; 20 μM, DMSO 17% Th17", "value": 10.2, "unit": "%"}
    ]},
    {"smiles": "O=C(CCCN1C(=O)/C(=C/c2ccccc2Cl)SC1=S)Nc1cccnc1", "note": "[MLS001034558-02]", "values": [
      {"measurement": "percentage of mouse Th17 cells (IL17a production)", "setting": "[1]; 5 μM, DMSO 25% Th17", "value": 14.3, "unit": "%"},
      {"measurement": "percentage of mouse Th17 cells (IL17a production)", "setting": "[1]; 20 μM, DMSO 17% Th17", "value": "dead"},
      {"measurement": "pIC50", "setting": "RORγ/γt", "value": 5.79},
      {"measurement": "80% Inhib. @", "setting": "RORγ/γt", "value": 8.843, "unit": "µM"}
    ]}
  ]
}
